Measured values published in US20230158071A1, “TUMOR COMBINED IMMUNOTHERAPY” (CRAGE medical Co., Limited, priority 2018, published 2023).

Assays:
[1] = tested on: exhaustion-related proteins PD1, LAG3 and TIM3 on the surface of CAR-T cells; experiment: Flow cytometry of exhaustion-related proteins on CAR-T cells in co-culture; assay type: cell-based, mouse
Description: The experimental groups are as follows: 806-mCD28z-CAR-T group (or denoted as 806-28Z), olaparib pretreatment group, and olaparib combined treatment group;
The olaparib pretreatment group comprises: 806-mCD28z-CAR-T+1 μM olaparib pretreatment group (or denoted as 806-28Z+Olaparib 1 μM pretreatment), 806-mCD28z-CAR-T+5 μM olaparib pretreatment group (or denoted as 806-28Z+Olaparib 5 μM pretreatment);
Olaparib combined treatment group comprises: 806-mCD28z-CAR-T+1 μM olaparib combined treatment group (or denoted as 806-28Z+Olaparib 1 μM), 806-mCD28z-CAR-T+5 μM olaparib combined treatment group (or denoted as 806-28Z+Olaparib 5 μM).
(§1) Olaparib pretreatment group: different concentrations of olaparib (1 μM, 5 μM) are respectively added to a medium for culturing E0771-EGFRvIII or 4T1-EGFRvIII tumor cells, after culturing at 37° C. for 24 hours, the cells are treated with trypsin and resuspended in fresh medium. 806-mCD28z-CAR T cells in Example 1 are taken to co-incubate with E0771-EGFRVIII or 4T1-EGFRvIII cells pretreated with different concentrations of olaparib at a ratio of 1:1; 16 hours later, the proliferation of CAR-T cells and the expression levels of the T cell exhaustion-related proteins PD1, LAG3 and TIM3 on the surface of CAR-T cells are detected by flow cytometry.
as §1, with “combined treatment” for “pretreatment”, “E0771-EGFRvIII” for “E0771-EGFRVIII”, “1:1; after corresponding concentrations of olaparib (1 μM, 5 μM) are respectively added to the medium for” for “1:1;”, “hours,” for “hours later,”, “LAG-3” for “LAG3”

[2] = tested on: E0771-EGFRvIII orthotopic breast cancer xenografts; experiment: Mouse E0771-EGFRvIII orthotopic breast cancer xenografts, olaparib and CAR-T; assay type: in vivo, C57BL/6 mice; conditions: olaparib 50 mg/kg i.p. with CAR-T cells
Description: (1) Establishment of mouse orthotopic breast cancer model and respective treatment in groups:
E0771-EGFRvIII cells in the logarithmic growth phase and growing well are collected, inoculating 5×10^5 target cells at right side position of the third pair of accessory breasts of C57BL/6 mice (mice with normal immune system), and the inoculating day is recorded as the first day (i.e., Day 1).
On the 10th day after tumor inoculation (i.e. Day 10), mouse T cells are taken and 806-mCD28z-CAR-T cell line is constructed as described in step 1 of this example.
On the 14th day after tumor inoculation (i.e., Day 14), the volume of the tumor reaches about 150 mm^3, and the mice are divided in groups:
The formula of olaparib stock solution: olaparib is added with 4% DMSO+30% PEG300+66% ddH2O in sequence; a solution of 5 mg/mL is used as the stock solution. […]
(2) Detection of tumor volume. The tumor volume changes of mice are observed and measured continuously, and recorded three times a week. […]
(4) Detection of CAR-T copy number in tumor tissues. Tumor tissues of each group of mice are ground to extract DNA, and the sequence of retroviral vector fragment is detected by Taqman probe method to determine the DNA copy number of 806-mCD28z-CAR. […]

[3] = olaparib combined treatment group

O=C(c1cc(Cc2n[nH]c(=O)c3ccccc23)ccc1F)N1CCN(C(=O)C2CC2)CC1 [olaparib]
do not change significantly: expression level of LAG3 on the surface of CAR-T cells [1, 3] | expression level of PD1 on the surface of CAR-T cells [1, 3] | expression level of TIM3 on the surface of CAR-T cells [1, 3] | expression level of LAG3 on the surface of CAR-T cells ([1]; olaparib pretreatment group) | expression level of PD1 on the surface of CAR-T cells ([1]; olaparib pretreatment group) | expression level of TIM3 on the surface of CAR-T cells ([1]; olaparib pretreatment group)
do not cause significant toxicity: toxicity of combining olaparib with CAR-T cell therapy (from body weights) [2]
